{"source": "patent US12077503B2", "about": "“Substituted cyclic amides and their use as herbicides” (FMC CORPORATION, priority 2015, dated 2024)", "format_in_all_cases": "in vivo", "key": {"[1]": {"tested_on": "ducksalad (Heteranthera limosa)", "assay": "Test B flooded paddy test", "settings": "Heteranthera limosa, Flood, 250 g ai/ha, read-out: Ducksalad plant response rating", "summary_of_the_method": "(§1)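 Response scored visually against untreated controls, 0 = no effect and 100 = complete control, 13–15 d after treatment in the greenhouse. Compounds added to paddy water held 3 cm above soil surface. Treatment given at 2-leaf stage.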"}, "[2]": {"tested_on": "rice (Oryra sativa)", "assay": "Test B flooded paddy test", "settings": "Oryza sativa, Flood, 250 g ai/ha, read-out: Rice plant response rating", "summary_of_the_method": "as §1"}, "[3]": {"tested_on": "barnyardgrass (Echinochloa crus-galli)", "assay": "Test B flooded paddy test", "settings": "Echinochloa crus-galli, Flood, 250 g ai/ha, read-out: Barnyardgrass plant response rating", "summary_of_the_method": "as §1"}, "[4]": {"tested_on": "sedge, umbrella (small-flower umbrella sedge, Cyperus difformis)", "assay": "Test B flooded paddy test", "settings": "Cyperus difformis, Flood, 250 g ai/ha, read-out: Sedge, Umbrella plant response rating", "summary_of_the_method": "as §1"}, "[5]": {"tested_on": "pigweed (Amaranthus retroflexus)", "assay": "Test A preemergence", "settings": "Amaranthus retroflexus, pre-emergence, 240 h; for pest or weed control at 125 g/ha: 125 g ai/ha, 0 to 100 scale where 0 is no effect and 100 is complete control; for pest or weed control at 500 g/ha: 500 g ai/ha"}, "[6]": {"tested_on": "Kochia (Kochia scoparia)", "assay": "Test A postemergence", "settings": "Bassia scoparia, post-emergence, 240 h, postemergence; for pest or weed control at 125 g/ha: 125 g ai/ha", "summary_of_the_method": "(§2)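 Ratings of 0 (no effect) to 100 (complete control) come from visual comparison with untreated controls roughly 10 d after treatment. Test chemicals, formulated in a non-phytotoxic solvent mixture with surfactant, were applied either as a preemergence directed soil spray on seeded soil or postemergence to one- to two-leaf plants 2 to 10 cm tall.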"}, "[7]": {"tested_on": "pigweed (Amaranthus retroflexus)", "assay": "Test A postemergence", "settings": "Amaranthus retroflexus, post-emergence, 240 h, postemergence; for pest or weed control at 125 g/ha: 125 g ai/ha", "summary_of_the_method": "as §2"}, "[8]": {"tested_on": "ragweed (common ragweed, Ambrosia elatior)", "assay": "Test A postemergence", "settings": "Ambrosia artemisiifolia, post-emergence, 240 h, postemergence; for pest or weed control at 125 g/ha: 125 g ai/ha", "summary_of_the_method": "as §2"}, "[9]": {"tested_on": "barnyardgrass (Echinochloa crus-galli)", "assay": "Test A postemergence", "settings": "Echinochloa crus-galli, post-emergence, 240 h, postemergence; for pest or weed control at 125 g/ha: 125 g ai/ha", "summary_of_the_method": "as §2"}, "[10]": {"tested_on": "corn (Zea mays)", "assay": "Test A postemergence", "settings": "Zea mays, post-emergence, 240 h, postemergence; for plant injury at 125 g/ha: 125 g ai/ha", "summary_of_the_method": "as §2"}, "[11]": {"tested_on": "giant foxtail (Setaria faberii)", "assay": "Test A postemergence", "settings": "Setaria faberi, post-emergence, 240 h, postemergence; for pest or weed control at 125 g/ha: 125 g ai/ha", "summary_of_the_method": "as §2"}, "[12]": {"tested_on": "wheat (Triticum aestivum)", "assay": "Test A postemergence", "settings": "Triticum aestivum, post-emergence, 240 h, postemergence; for plant injury at 125 g/ha: 125 g ai/ha", "summary_of_the_method": "as §2"}, "[13]": {"tested_on": "blackgrass (Alopecurus myosuroides)", "assay": "Test A postemergence", "settings": "Alopecurus myosuroides, post-emergence, 240 h, postemergence; for pest or weed control at 125 g/ha: 125 g ai/ha", "summary_of_the_method": "as §2"}, "[14]": {"tested_on": "ryegrass, Italian (Italian ryegrass, Lolium multiflorum)", "assay": "Test A postemergence", "settings": "Lolium multiflorum, post-emergence, 240 h, postemergence; for pest or weed control at 125 g/ha: 125 g ai/ha", "summary_of_the_method": "as §2"}, "[15]": {"tested_on": "Galium (catchweed bedstraw, Galium aparine)", "assay": "Test A postemergence", "settings": "Galium, post-emergence, 240 h, postemergence; for pest or weed control at 125 g/ha: 125 g ai/ha", "summary_of_the_method": "as §2"}, "[16]": {"settings": "scale of 0 to 100 where 0 is no effect and 100 is complete control"}, "[17]": {"settings": "0 to 100 scale where 0 is no effect and 100 is complete control"}}, "note": "Like-named read-outs stand apart in the source and are kept apart here."}
{"compound": "Cc1c(F)ccc([C@H]2CN(C)C(=O)[C@@H]2C(=O)Nc2ccccc2S(C)(=O)=O)c1F", "note": "[Compound 842]", "values": [{"measurement": "pest or weed control at 250 g/ha", "setting": "[1]; [16]", "result": 100, "unit": "%"}, {"measurement": "pest or weed control at 250 g/ha", "setting": "[2]; [16]", "result": 0, "unit": "%"}, {"measurement": "pest or weed control at 250 g/ha", "setting": "[3]; [16]", "result": 65, "unit": "%"}, {"measurement": "pest or weed control at 250 g/ha", "setting": "[4]; [16]", "result": 0, "unit": "%"}, {"measurement": "pest or weed control at 125 g/ha", "setting": "[5]; preemergence, read-out: Pigweed plant response rating", "result": 40, "unit": "%"}, {"measurement": "pest or weed control at 500 g/ha", "setting": "[5]; Preemergence, visual injury vs untreated controls after approximately 10 d, read-out: Pigweed plant response rating (0 to 100 scale where 0 is no effect and 100 is complete control)", "result": 70, "unit": "%"}, {"measurement": "pest or weed control at 125 g/ha", "setting": "[6]; visual injury rating after approximately 10 d, read-out: Kochia plant response rating (0 to 100 scale, 0 no effect, 100 complete control)", "result": 30, "unit": "%"}, {"measurement": "pest or weed control at 125 g/ha", "setting": "[7]; visual injury rating after approximately 10 d, read-out: Pigweed plant response rating (0 to 100 scale, 0 no effect, 100 complete control)", "result": 30, "unit": "%"}, {"measurement": "pest or weed control at 125 g/ha", "setting": "[8]; visual injury rating after approximately 10 d, read-out: Ragweed plant response rating (0 to 100 scale, 0 no effect, 100 complete control)", "result": 30, "unit": "%"}, {"measurement": "pest or weed control at 125 g/ha", "setting": "[9]; visual injury rating after approximately 10 d, read-out: Barnyardgrass plant response rating (0 to 100 scale, 0 no effect, 100 complete control)", "result": 90, "unit": "%"}, {"measurement": "plant injury at 125 g/ha", "setting": "[10]; visual injury rating after approximately 10 d, read-out: Corn plant response rating (0 to 100 scale, 0 no effect, 100 complete control)", "result": 20, "unit": "%"}, {"measurement": "pest or weed control at 125 g/ha", "setting": "[11]; visual injury rating after approximately 10 d, read-out: Foxtail, Giant plant response rating (0 to 100 scale, 0 no effect, 100 complete control)", "result": 90, "unit": "%"}, {"measurement": "plant injury at 125 g/ha", "setting": "[12]; visual injury rating after approximately 10 d, read-out: Wheat plant response rating (0 to 100 scale, 0 no effect, 100 complete control)", "result": 30, "unit": "%"}, {"measurement": "pest or weed control at 125 g/ha", "setting": "[13]; visual injury rating after approximately 10 d, read-out: Blackgrass plant response rating (0 to 100 scale, 0 no effect, 100 complete control)", "result": 30, "unit": "%"}, {"measurement": "pest or weed control at 125 g/ha", "setting": "[14]; visual injury rating after approximately 10 d, read-out: Ryegrass, Italian plant response rating (0 to 100 scale, 0 no effect, 100 complete control)", "result": 20, "unit": "%"}, {"measurement": "pest or weed control at 125 g/ha", "setting": "[15]; visual injury rating after approximately 10 d, read-out: Galium plant response rating (0 to 100 scale, 0 no effect, 100 complete control)", "result": 50, "unit": "%"}]}
{"compound": "C/C=C/N1C[C@@H](c2cccc(C(F)(F)F)c2)[C@H](C(=O)Nc2ccccc2F)C1=O", "note": "(racemic) [Compound 1094]", "values": [{"measurement": "pest or weed control at 250 g/ha", "setting": "[1]; [17]", "result": 0, "unit": "%"}, {"measurement": "pest or weed control at 250 g/ha", "setting": "[2]; [17]", "result": 0, "unit": "%"}, {"measurement": "pest or weed control at 250 g/ha", "setting": "[3]; [17]", "result": 45, "unit": "%"}, {"measurement": "pest or weed control at 250 g/ha", "setting": "[4]; [17]", "result": 0, "unit": "%"}, {"measurement": "pest or weed control at 125 g/ha", "setting": "[5]; preemergence, approx. 10 d, read-out: Pigweed plant response rating", "result": 0, "unit": "%"}, {"measurement": "pest or weed control at 500 g/ha", "setting": "[5]; preemergence, visual injury rating about 10 d after treatment, 0 to 100 scale (0 no effect, 100 complete control), read-out: Pigweed plant response rating", "result": 0, "unit": "%"}, {"measurement": "pest or weed control at 125 g/ha", "setting": "[6]; visual injury on 0 to 100 scale (0 no effect, 100 complete control), approx. 10 d, read-out: Kochia plant response rating", "result": 0, "unit": "%"}, {"measurement": "pest or weed control at 500 g/ha", "setting": "[6]; 500 g ai/ha, 0 to 100 scale, 0 is no effect, 100 is complete control, read-out: Kochia plant response rating", "result": 0, "unit": "%"}, {"measurement": "pest or weed control at 125 g/ha", "setting": "[7]; visual injury on 0 to 100 scale (0 no effect, 100 complete control), approx. 10 d, read-out: Pigweed plant response rating", "result": 0, "unit": "%"}, {"measurement": "pest or weed control at 500 g/ha", "setting": "[7]; 500 g ai/ha, 0 to 100 scale, 0 is no effect, 100 is complete control, read-out: Pigweed plant response rating", "result": 20, "unit": "%"}, {"measurement": "pest or weed control at 125 g/ha", "setting": "[8]; visual injury on 0 to 100 scale (0 no effect, 100 complete control), approx. 10 d, read-out: Ragweed plant response rating", "result": 0, "unit": "%"}, {"measurement": "pest or weed control at 500 g/ha", "setting": "[8]; 500 g ai/ha, 0 to 100 scale, 0 is no effect, 100 is complete control, read-out: Ragweed plant response rating", "result": 0, "unit": "%"}, {"measurement": "pest or weed control at 125 g/ha", "setting": "[9]; visual injury on 0 to 100 scale (0 no effect, 100 complete control), approx. 10 d, read-out: Barnyardgrass plant response rating", "result": 40, "unit": "%"}, {"measurement": "pest or weed control at 500 g/ha", "setting": "[9]; 500 g ai/ha, 0 to 100 scale, 0 is no effect, 100 is complete control, read-out: Barnyardgrass plant response rating", "result": 80, "unit": "%"}, {"measurement": "plant injury at 125 g/ha", "setting": "[10]; visual injury on 0 to 100 scale (0 no effect, 100 complete control), approx. 10 d, read-out: Corn plant response rating", "result": 0, "unit": "%"}, {"measurement": "plant injury at 500 g/ha", "setting": "[10]; 500 g ai/ha, 0 to 100 scale, 0 is no effect, 100 is complete control, read-out: Corn plant response rating", "result": 0, "unit": "%"}, {"measurement": "pest or weed control at 125 g/ha", "setting": "[11]; visual injury on 0 to 100 scale (0 no effect, 100 complete control), approx. 10 d, read-out: Foxtail, Giant plant response rating", "result": 30, "unit": "%"}, {"measurement": "pest or weed control at 500 g/ha", "setting": "[11]; 500 g ai/ha, 0 to 100 scale, 0 is no effect, 100 is complete control, read-out: Foxtail, Giant plant response rating", "result": 80, "unit": "%"}, {"measurement": "plant injury at 125 g/ha", "setting": "[12]; visual injury on 0 to 100 scale (0 no effect, 100 complete control), approx. 10 d, read-out: Wheat plant response rating", "result": 20, "unit": "%"}, {"measurement": "plant injury at 500 g/ha", "setting": "[12]; 500 g ai/ha, 0 to 100 scale, 0 is no effect, 100 is complete control, read-out: Wheat plant response rating", "result": 30, "unit": "%"}, {"measurement": "pest or weed control at 125 g/ha", "setting": "[13]; visual injury on 0 to 100 scale (0 no effect, 100 complete control), approx. 10 d, read-out: Blackgrass plant response rating", "result": 0, "unit": "%"}, {"measurement": "pest or weed control at 500 g/ha", "setting": "[13]; 500 g ai/ha, 0 to 100 scale, 0 is no effect, 100 is complete control, read-out: Blackgrass plant response rating", "result": 30, "unit": "%"}, {"measurement": "pest or weed control at 125 g/ha", "setting": "[14]; visual injury on 0 to 100 scale (0 no effect, 100 complete control), approx. 10 d, read-out: Ryegrass, Italian plant response rating", "result": 0, "unit": "%"}, {"measurement": "pest or weed control at 500 g/ha", "setting": "[14]; 500 g ai/ha, 0 to 100 scale, 0 is no effect, 100 is complete control, read-out: Ryegrass, Italian plant response rating", "result": 20, "unit": "%"}, {"measurement": "pest or weed control at 125 g/ha", "setting": "[15]; visual injury on 0 to 100 scale (0 no effect, 100 complete control), approx. 10 d, read-out: Galium plant response rating", "result": 20, "unit": "%"}, {"measurement": "pest or weed control at 500 g/ha", "setting": "[15]; 500 g ai/ha, 0 to 100 scale, 0 is no effect, 100 is complete control, read-out: Galium plant response rating", "result": 20, "unit": "%"}]}
